In patent USRE50282E1, “Specific modification of antibody with IgG-binding peptide” (KAGOSHIMA UNIVERSITY, priority 2015, dated 2025):
One block for each molecule: values may come before it. *1 amine or outer side, *2 acyl side, *3 side chain or, on linkers, in order; H or OH if unused. Where a SMILES comes first, the peptide text is derived from it. Bridges are numbered along the chain shown (N, C = ends). Where no end group is shown, it is not given here. [ ]: non-standard residue; d: D form. The star is where a group is joined. DSS = disuccinimidyl suberate, reactive NHS group, O=C(CCCCCCC(=O)*)ON1C(=O)CCC1=O; Dolaproine = CO[C@@H]([C@@H]1CCCN1)[C@@H](C)C(=O)O; Hexanoyl(6-maleimido) = O=C1C=CC(=O)N1CCCCCC(=O)*; Biotin = O=C1N[C@H]2[C@H](CS[C@H]2CCCCC(=O)*)N1; Dil = CC[C@H](C)[C@H](NC)[C@@H](CC(=O)O)OC; PABC = O=C(OCc1ccc(N[*:1])cc1)[*:2]; X1 = C[C@@H](N*)[C@@H](O)c1ccccc1; PEG5 = NCCOCCOCCOCCOCCOCCC(=O)O; Cit = NC(=O)NCCC[C@H](N)C(=O)O; NMeV = CN[C@H](C(=O)O)C(C)C

Key:
hIgG = molecular target: T1, hIgG (Homo sapiens, UniProt P01857); assay: ELISA of reaction between labeled IgG-binding peptide and plate-adsorbed IgG (Example 4)
T1 construct: purchased Chugai Pharmaceutical Co., Ltd

[1] = tested on: hIgA, bovine gelatin, or BSA; assay: ELISA of reaction between labeled IgG-binding peptide and other plate proteins (Example 4); details: excess of labeled peptide reagent
Description: A 0.1 M NaHCO3 solution containing each protein (IgG (Chugai Pharmaceutical Co., Ltd.), IgA (Athens Research & Technology, Inc.), or bovine gelatin (Wako Pure Chemical Industries, Ltd.)) (50 ng (0.33 pmol)/μl/well) was added to wells of a 96-well microplate (Nunc® MaxiSorp), and the plate was left overnight at room temperature to adsorb each protein onto the surface of the plate. […] After a lapse of 1 hour, the reaction was terminated by the addition of 1 M Tris-HCl (pH 7.0) at 3 μL/well. SA-HRP (Vector Laboratories, Inc.) diluted 2000-fold with 0.5% BSA was added thereto at 50 μL/well and reacted at room temperature for 1 hour. Then, the plate was washed five times with 0.1% PBST. Then, a TMB solution (Wako Pure Chemical Industries, Ltd.) was used in the color development of HRP. After 5-minute chromogenic reaction, the absorbance at 450 nm was measured using an ELISA plate reader (model 680 microplate reader (Bio-Rad Laboratories, Inc.)).

human IgG [2] = molecular target: T2, human IgG (Homo sapiens, UniProt P01857); type: binding; details: SPR; peptides N-terminally blocked with biotinylated PEG4; NHS group hydrolysed
SK-BR3 cells [3] = assay: Cell growth inhibition, Cell Counting Kit-8, 72 hours (Examples 11 and 12); type: cell-based; details: 0 to 500 nM
human IgG Fc = molecular target: T3, human IgG Fc (Homo sapiens, UniProt P01857); assay: Cross-linking reaction with Fc analyzed by ion-exchange chromatography (Examples 6 and 7); type: biochemical; details: for unreacted form (peak 2) produced: 15 minutes
T3 construct: human IgG (Chugai Pharmaceutical Co., Ltd.) Fc solution; purchased Chugai Pharmaceutical Co., Ltd
Description: The reaction was terminated by the addition of 10 μL of 1 M Tris-HCl (pH 7.0). 50 μL of the reaction product was injected to NGC Chromatography system (Bio-Rad Laboratories, Inc.) connected with Shodex IEC SP-825 column, followed by gradient elution from a 25 mM acetate buffer (pH 4.5) to a 25 mM acetate buffer (pH 4.5) containing 1 M NaCl. The protein elution was monitored on the basis of absorbance at 215 nm. Each obtained peak was separated and subjected to molecular weight measurement by LC/MS.
20 μL of the obtained fraction of the peak was injected to Shimadzu LCMS-8030 connected with Waters ACQUITY UPLC BEH C8 (1.7 μm, 2.1 mm×100 mm) column, followed by gradient elution from 4% acetonitrile containing 0.1% formic acid to 60% acetonitrile containing 0.1% formic acid. The eluted peaks were subjected to mass spectrometry, and the masses were calculated by deconvolution from polyvalent ion peaks using analytical software.
1.0 μL (molar ratio: 1.0) of the DSG-modified IgG-binding peptide (4 mM) dissolved in DMF, prepared in Example 5 was added to 200 μL of a human IgG Fc solution prepared at pH 4.0 (25 mM acetate buffer solution), pH 5.5 (25 mM acetate buffer solution), or pH 7.0 (PBS), and the mixture was rapidly stirred and then reacted at room temperature. 1, 5, 10, or 30 minutes after the start of the reaction, the reaction was terminated by the addition of 10 μL of 1 M Tris-HCl (pH 7.0). 50 μL of the reaction product was injected to NGC Chromatography system (Bio-Rad Laboratories, Inc.) connected with Shodex IEC SP-825 column, followed by gradient elution from a 25 mM acetate buffer (pH 4.5) to a 25 mM acetate buffer (pH 4.5) containing 1 M NaCl. The protein elution was monitored on the basis of absorbance at 215 nm. On the basis of the obtained chromatogram, the percentage of each peak was calculated.

[4] = molecular target: T4, rabbit IgG (polyclonal antibody) (Oryctolagus cuniculus, UniProt P01870); assay: Labeling of various IgG, SDS-PAGE and Western blot with HRP-labeled streptavidin (Example 13); type: binding; details: antibody:peptide 1:4; 30 minutes
T4 construct: purchased Thermo Fisher Scientific Inc

human IgG [5] = molecular target: T2, human IgG; assay: as above; details: human monoclonal IgG1; antibody:peptide 1:4; 30 minutes
human IgG [6] = molecular target: human IgG (Homo sapiens, UniProt P01859); assay: as above; details: human IgG2; antibody:peptide 1:4; 30 minutes
human IgG [7] = molecular target: human IgG (Homo sapiens, UniProt P01861); assay: as above; details: human IgG4; antibody:peptide 1:4; 30 minutes
4D5-Fc antibody = details: PE-labeled streptavidin; dead cells excluded by 7-AAD
SK-BR3 cells [8] = details: peptide plus SA-PE label only

human IgG (Homo sapiens, UniProt P01859), sequence (P01859 1-326 isoform P01859-1): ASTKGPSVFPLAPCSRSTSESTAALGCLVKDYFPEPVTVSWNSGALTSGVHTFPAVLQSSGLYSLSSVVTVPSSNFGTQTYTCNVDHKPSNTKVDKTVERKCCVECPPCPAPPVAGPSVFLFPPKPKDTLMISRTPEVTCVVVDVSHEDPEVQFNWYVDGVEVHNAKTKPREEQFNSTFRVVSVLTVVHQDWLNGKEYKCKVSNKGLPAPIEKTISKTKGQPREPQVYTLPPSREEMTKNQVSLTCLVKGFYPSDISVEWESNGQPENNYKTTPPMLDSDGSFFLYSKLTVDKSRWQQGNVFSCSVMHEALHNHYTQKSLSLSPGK
T4 sequence (P01870 whole entry): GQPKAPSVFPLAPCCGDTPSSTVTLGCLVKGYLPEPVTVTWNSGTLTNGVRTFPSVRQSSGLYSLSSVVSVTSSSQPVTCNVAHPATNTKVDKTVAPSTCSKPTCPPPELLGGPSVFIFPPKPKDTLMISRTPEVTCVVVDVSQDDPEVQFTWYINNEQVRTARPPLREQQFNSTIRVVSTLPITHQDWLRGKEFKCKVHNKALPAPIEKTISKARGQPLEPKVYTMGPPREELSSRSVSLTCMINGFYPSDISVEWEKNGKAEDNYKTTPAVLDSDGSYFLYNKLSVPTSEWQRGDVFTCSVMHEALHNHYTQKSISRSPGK
human IgG (Homo sapiens, UniProt P01861), sequence (P01861 1-327 isoform P01861-1): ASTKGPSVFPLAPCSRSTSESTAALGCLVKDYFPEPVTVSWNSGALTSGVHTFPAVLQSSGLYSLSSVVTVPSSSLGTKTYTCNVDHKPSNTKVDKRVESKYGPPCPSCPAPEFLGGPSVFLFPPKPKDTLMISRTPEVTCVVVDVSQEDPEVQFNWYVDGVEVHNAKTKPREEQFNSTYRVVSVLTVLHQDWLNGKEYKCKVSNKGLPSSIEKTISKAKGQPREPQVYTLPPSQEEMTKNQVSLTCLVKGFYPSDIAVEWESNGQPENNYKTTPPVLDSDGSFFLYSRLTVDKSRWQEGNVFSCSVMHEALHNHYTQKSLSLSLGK

reaction time at which saturation was seen (hIgG; IgG and peptide at molar ratio 1:2): approximately 15 minutes
molar ratio at which saturation was seen (hIgG; molar ratios 1 to 10, 1 hour): approximately 5
binding to other proteins [1]: not detected
Molecule: labeled IgG-binding peptide modified with DSS: biotinylated IgG-binding (R8K) peptide modified with cross-linking agent, prepared as in Example 2 (GDDCAYHK(DSS)GELVWCTFH-NH2; not fully specified (N-terminus); cysteine pairing not given here; also: biotinylated)

Molecule: CC(C)C[C@@H]1NC(=O)[C@H](CCC(=O)O)NC(=O)CNC(=O)[C@H](CCCNC(=N)N)NC(=O)[C@H](Cc2c[nH]cn2)NC(=O)[C@H](Cc2ccc(O)cc2)NC(=O)[C@H](C)NC(=O)[C@@H](NC(=O)[C@H](CC(=O)O)NC(=O)[C@@H]2CCCN2C(=O)CNC(=O)CCOCCOCCOCCOCCOCCNC(=O)CCCC[C@@H]2SC[C@@H]3NC(=O)N[C@@H]32)CSSC[C@@H](C(=O)N[C@H](C(=O)N[C@@H](Cc2ccccc2)C(=O)N[C@@H](Cc2c[nH]cn2)C(N)=O)[C@@H](C)O)NC(=O)[C@H](Cc2c[nH]c3ccccc23)NC(=O)[C@H](C(C)C)NC1=O [Type I] ({Biotin-PEG5}-GPDCAYHRGELVWCTFH-NH2; disulfide 4-14)
ka (human IgG [2]): 1.57E+06
kd (human IgG [2]): 0.0144

Molecule: CC[C@H](C)[C@@H]([C@@H](CC(=O)N1CCC[C@H]1[C@H](OC)[C@@H](C)C(=O)N[C@H](C)[C@@H](O)c1ccccc1)OC)N(C)C(=O)[C@@H](NC(=O)[C@H](C(C)C)N(C)C(=O)OCc1ccc(NC(=O)[C@H](CCCNC(N)=O)NC(=O)[C@@H](NC(=O)CCCCCN2C(=O)C=CC2=O)C(C)C)cc1)C(C)C [VcMMAE, maleimidocaproyl-valine-citrulline-p-aminobenzoyloxycarbonyl-monomethyl auristatin E] ({Hexanoyl(6-maleimido)}-V[Cit][PABC][NMeV]V[Dil][Dolaproine]-X1)
concentration giving cell growth inhibition (SK-BR3 cells [3]): ≥ 250 nM

Molecule: Biotin-PEG4-RGNCAYHXGQLVWCTYH-NH2 [DSG-modified IgG-binding peptide]
Fc with a larger number of peptides than two added (human IgG Fc; excessive molar ratio 1:5, pH 4.5): not detected
unreacted form (peak 2) produced (human IgG Fc; molar ratio 1:1, pH 4.5, room temperature): ≤ 20%
unreacted form (peak 2) produced (human IgG Fc; molar ratio 1:2, pH 4.5, room temperature): ≤ 10%
yield of the adduct of two peptides (peak 4) (human IgG Fc; other pH cases (pH 5.5, pH 7.0), molar ratio 1.0): 35-40%
part of the reaction completed within 1 minute (human IgG Fc; pH 4.0, pH 5.5 and pH 7.0, molar ratio 1.0, room temperature): ≥ 90%
amount of the unreacted form remaining (human IgG Fc; pH 4.0, molar ratio 1.0): exceeded 40%
yield of the adduct of two peptides (peak 4) (human IgG Fc; pH 4.0, molar ratio 1.0): approximately 15%
yield of the unreacted form (human IgG Fc; pH 5.5 and 7.0, molar ratio 1.0): ~10%
labeling of rabbit polyclonal IgG (staining in Western blot) [4]: strongly stained
labeling of human IgG1 (band in Western blot) (human IgG [5]): dark bands
labeling of human IgG2 (band in Western blot) (human IgG [6]): dark bands
labeling of human IgG4 (band in Western blot) (human IgG [7]): dark bands
fluorescence intensity compared with biotinylated anti-human IgG mouse antibody (4D5-Fc antibody): rarely differed in fluorescence intensity
shift in fluorescence intensity without 4D5-Fc (SK-BR3 cells [8]): no shift in fluorescence intensity
